Reference: paper PMC9486805, “Identification of a Phage Display-Derived Peptide Interacting with the N-Terminal Region of Factor VII Activating Protease (FSAP) Enables Characterization of Zymogen Activation” (ACS Chemical Biology, 2022)
“Also recorded” adds a separate entry of the source.

Experiments:
pro-FSAP in human plasma [1] = target: T1, pro-FSAP in human plasma (Homo sapiens, UniProt Q14520); test: Activation of endogenous pro-FSAP in plasma, fluorogenic substrate turnover; format: biochemical
T1 construct: from tissue; host or cells: human hirudin or citrate plasma from healthy donors, diluted 1:12
T1 sequence (Q14520 24-560): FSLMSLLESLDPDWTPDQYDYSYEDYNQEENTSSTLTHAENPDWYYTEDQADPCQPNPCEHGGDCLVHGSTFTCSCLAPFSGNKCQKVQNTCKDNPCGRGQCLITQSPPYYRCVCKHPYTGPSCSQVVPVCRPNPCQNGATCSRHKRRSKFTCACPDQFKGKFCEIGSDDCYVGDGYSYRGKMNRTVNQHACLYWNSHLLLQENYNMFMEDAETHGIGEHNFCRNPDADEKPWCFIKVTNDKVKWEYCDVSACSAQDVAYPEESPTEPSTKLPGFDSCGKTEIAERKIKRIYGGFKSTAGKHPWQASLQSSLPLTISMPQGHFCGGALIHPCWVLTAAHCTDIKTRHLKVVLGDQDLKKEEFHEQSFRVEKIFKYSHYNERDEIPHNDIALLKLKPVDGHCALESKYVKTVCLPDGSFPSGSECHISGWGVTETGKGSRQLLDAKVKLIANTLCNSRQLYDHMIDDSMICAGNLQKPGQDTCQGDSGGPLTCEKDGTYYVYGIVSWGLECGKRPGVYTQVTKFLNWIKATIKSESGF
Procedure: Human citrate plasma (0.38% w/v) or hirudin plasma (25 μg/mL Lepirudin) was obtained from five healthy donors. Plasma was diluted at 1:12 and mixed with various test substances that potentially activate or inhibit pro-FSAP. Ac–Ala–Lys–Nle–Arg–AMC (amino–methyl–coumarin) was used as a sensitive and specific substrate for FSAP.[35] Hydrolysis of the fluorogenic substrates was measured using a Synergy HI plate reader with excitation at 320 nm and emission at 460 nm at 37 °C for 60 min. The maximal velocity was calculated from the linear part of the progress curve. In limited experiments, the second-generation fluorogenic FSAP substrate (Ac–Pro–DTyr–Lys–Arg–AMC)[34] was used. Pro-uPA activation, formation of FSAP−α2-antiplasmin, and western blotting with anti-FSAP antibodies were also used to monitor pro-FSAP activation.

FSAP heavy chain = test: Binding of biotinylated peptides to captured recombinant FSAP heavy chain; parameters: species or system human; conditions: peptide 1 μM; triplicate wells (Fig 2E)
Procedure: Figure 2 NNKC9/41 interacts with the NTR of pro-FSAP: (A) To determine peptide binding to pro-FSAP, wells were coated with 2 μg/mL pro-FSAP and biotinylated NNKC9/41 and NNK11/189 and their respective scrambled controls were added in different concentration (0–5 μM). Peroxidase-labeled streptavidin was used to detect peptide binding. (B) Same procedure as in (A) except that different proteins were immobilized and biotinylated NNKC9/41 (0–30 μM) was added and its binding was measured. (C) Schematic structure of pro-FSAP with the heavy chain consisting of an NTR, three EGF domains, and a kringle domain, followed by the light chain harboring the serine protease domain (SPD). The binding domains of antibodies used in this study are indicated. (D) Recombinant complete heavy chain (heavy) and truncated heavy chain variants ΔNTR, ΔEGF1, ΔEGF2, ΔEGF3, and ΔKringle were expressed in bacteria and analyzed by sodium dodecyl sulfate poly(acrylamide) gel electrophoresis (SDS-PAGE) followed by Coomassie staining. […] Biotinylated NNKC9/41 or the scrambled control peptide was added at 1 μM and peptide binding was measured with peroxidase-linked streptavidin. […]
Wells were coated with anti-FSAP polyclonal antibodies (5 μg/mL). […] Subsequently, the plates were washed, and bound peptides were detected with peroxidase-coupled streptavidin. […]

pro-FSAP in human plasma [2] = target: T1, pro-FSAP in human plasma; test: Immunocapture of pro-FSAP from plasma and conversion of pro-uPA to uPA; format: biochemical; conditions: hirudin plasma 1:12, 1 h at 37 °C; NNKC9/41 0–25 μM, histones 0–25 μg/mL; PNAPEP1344; three donors (Fig 4B)
Procedure: (§1) Figure 4 Comparison of different methods to measure pro-FSAP activation in plasma: (A) hirudin plasma (1:12 dilution) was incubated with histones (0–25 μg/mL), NNKC9/41, or its Ser–Ser linear control (0–25 μM) and the fluorogenic substrate turnover (Ac–Ala–Lys–Nle–Arg–AMC) was monitored. (B) From the same experiment as in (A) after 1 h incubation at 37 °C, samples were captured on anti-FSAP coated wells and the conversion of added pro-uPA to active uPA was measured by determining the turnover of the chromogenic substrate PNAPEP1344 (25 μM). (C) From the same experiment as in (A) after 1 h incubation at 37 °C, samples were captured on anti-FSAP coated wells and α2-antiplasmin antibody was used to detect the formation of FSAP−α2-antiplasmin complexes. […] In (F), the samples with MA-FSAP-570 were not analyzed since this antibody would interfere in the sandwich ELISA. […]
(§2) Human citrate plasma (0.38% w/v) or hirudin plasma (25 μg/mL Lepirudin) was obtained from five healthy donors. […] Hydrolysis of the fluorogenic substrates was measured using a Synergy HI plate reader with excitation at 320 nm and emission at 460 nm at 37 °C for 60 min. The maximal velocity was calculated from the linear part of the progress curve. […]

pro-FSAP in human plasma [3] = target: T1, pro-FSAP in human plasma; test: Formation of FSAP–alpha2-antiplasmin complexes in plasma; format: biochemical; conditions: hirudin plasma 1:12, 1 h at 37 °C; NNKC9/41 0–25 μM, histones 0–25 μg/mL; three donors (Fig 4C)
Procedure: as §1, §2

Sequence: CRGAMWMYKRC [NNKC9/41]
- inhibitory effect of citrate after recalcification (pro-FSAP in human plasma [1]; citrate plasma 1:12, recalcified, data not shown): reversed by recalcification
- effect in citrate plasma 1:12 (pro-FSAP in human plasma [1]; citrate plasma 1:12, 10 μM, 3 donors (Fig S5)): weak
- fluorogenic substrate turnover vs histones (pro-FSAP in human plasma [1]; hirudin plasma 1:12, NNKC9/41 0–25 μM, histones 0–25 μg/mL, three donors (Fig 4A)): stronger effect than histones
- pro-FSAP activation in plasma (pro-FSAP in human plasma [1]; hirudin plasma 1:12, peptides 25 μM, histones 25 μg/mL, Ac–Ala–Lys–Nle–Arg–AMC, duplicate wells (Fig 1D)): robust activation of pro-FSAP comparable to that with histones
- pro-FSAP activation in hirudin plasma (pro-FSAP in human plasma [1]; hirudin plasma, dilutions 1:2 to 1:12, 10 μM, 3 donors (Fig S5)): activated pro-FSAP in plasma
- lag time of pro-FSAP activation (pro-FSAP in human plasma [1]; plasma, compared to histones (Fig 1D)): > 15 min
- peptide binding to heavy chain (FSAP heavy chain): high binding
- pro-uPA conversion (pro-FSAP in human plasma [2]): weaker than histones; also recorded: concentration-dependent effect
- FSAP–alpha2-antiplasmin complex formation (pro-FSAP in human plasma [3]): weaker than histones; also recorded: concentration-dependent effect
